Data taken from the OPERA property sets (Mansouri et al. 2018).

Conditions: for log10 BCF / log10 biotransformation half-life (days): fish

CCOC1Oc2ccc(OS(C)(=O)=O)cc2C1(C)C (stereo not drawn)
log10 Koc (L/kg): 2.53 | log10 vapour pressure (mmHg): -5.31 | melting point: 71 °C

CC1CCCCC1
boiling point: 101 °C | log10 Henry constant (atm·m³/mol): -0.367 | log10 Koa: 3.03 | log10 biodegradation half-life (days): 0.602 | log10 vapour pressure (mmHg): 1.66 | melting point: -127 °C | log10 BCF: 2.27 | log10 biotransformation half-life (days): 0.57

Clc1cccc(-c2c(Cl)cc(Cl)cc2Cl)c1
log10 Henry constant (atm·m³/mol): -3.68

CCCCCCCCCCCCCCCCCC(=O)OCCOCCOCCOCCO
melting point: 40 °C

Brc1cc(Br)c(Br)cc1Br
melting point: 182 °C | log10 BCF: 3.59 | log10 biotransformation half-life (days): 1.35

COc1cc(OC)nc(Sc2cccc(Cl)c2C(=O)[O][Na])n1
log10 Koc (L/kg): 1.15

CCOC(=O)C(SP(=S)(OC)OC)c1ccccc1 (stereo not drawn)
log10 Koc (L/kg): 3 | log10 vapour pressure (mmHg): -5.58 | melting point: 17.5 °C | ready biodegradability: not readily biodegradable | log10 BCF: 1.69 | log10 biotransformation half-life (days): -0.75

CC1=CCC(=C(C)C)CC1
boiling point: 186 °C | log10 Henry constant (atm·m³/mol): -1.58 | log10 vapour pressure (mmHg): -0.129 | ready biodegradability: readily biodegradable

O=C1CCCC(=O)O1
boiling point: 287 °C | log10 vapour pressure (mmHg): -2.52 | melting point: 56.3 °C

C1CN(SSN2CCOCC2)CCO1
melting point: 124 °C | ready biodegradability: not readily biodegradable

CCCCC(C)(C)C
log10 biodegradation half-life (days): 0.602 | log10 vapour pressure (mmHg): 1.53 | melting point: -121 °C

CC[C@@H]1C(=O)OC[C@@H]1Cc1cncn1C.Cl
melting point: 204 °C

Fc1ccccc1-c1ccccc1
boiling point: 248 °C | melting point: 73.5 °C

CCOC(=O)C(C(=O)OCC)c1ccccc1
melting point: 16.5 °C

N#CCCc1ccccc1
boiling point: 261 °C | melting point: -1 °C

O=c1cc[nH]c2ccccc12
melting point: 201 °C

O=[N+]([O-])C(CO)(CO)CO
melting point: 214 °C | ready biodegradability: readily biodegradable

CC(=O)[C@@]1(O)CC[C@H]2[C@@H]3CCC4=CC(=O)CC[C@]4(C)[C@H]3CC[C@@]21C
melting point: 222 °C

Ic1ccc(I)c(I)c1I
melting point: 136 °C

CC(C)=CCCC(C)CCO (racemic)
boiling point: 224 °C

CCOc1ccc2nc(S(N)(=O)=O)sc2c1
melting point: 189 °C

CCCCCCCC[Si](Cl)(Cl)Cl
boiling point: 232 °C

C=CCN
boiling point: 53.3 °C | log10 vapour pressure (mmHg): 2.38 | melting point: -88.2 °C

CC(=O)OCC(=O)[C@@]12N=C(C)O[C@@H]1C[C@H]1[C@@H]3CCC4=CC(=O)C=C[C@]4(C)[C@H]3[C@@H](O)C[C@@]12C
melting point: 256 °C

O=[N+]([O-])c1ccc(S(=O)(=O)O)c([N+](=O)[O-])c1
melting point: 108 °C

Cc1cccc(C)c1NC(=O)c1ccc[nH]c1=O
melting point: 266 °C

O=C(OC(Cl)(Cl)Cl)C(Cl)(Cl)Cl
boiling point: 192 °C | melting point: 34 °C

O=C(O)C1CC=CCC1C(=O)O (stereo not drawn)
ready biodegradability: not readily biodegradable | log10 BCF: 0.3 | log10 biotransformation half-life (days): -0.57

COc1ccccc1NC(=O)CC(C)=O
melting point: 86 °C

O=C(NC(=O)c1ccccc1Cl)Nc1ccc(OC(F)(F)F)cc1
log10 vapour pressure (mmHg): -9.52 | melting point: 195 °C

C=C1CCC(C)CC1
boiling point: 122 °C

CCc1cc(C)cc(O)c1
boiling point: 236 °C | log10 vapour pressure (mmHg): -2.06 | melting point: 51.6 °C

O=c1[nH]c2ccccc2c(-c2ccccc2)c1O
melting point: 268 °C

CC(=O)[C@@]12O[C@](C)(c3ccccc3)O[C@@H]1C[C@H]1[C@@H]3CCC4=CC(=O)CC[C@]4(C)[C@H]3CC[C@@]12C
melting point: 150 °C

Cc1ccccc1F
boiling point: 115 °C | log10 vapour pressure (mmHg): 1.39 | melting point: -62 °C

NS(=O)(=O)c1cc2c(cc1Cl)NC(CSCC(F)(F)F)NS2(=O)=O (stereo not drawn)
melting point: 206 °C

CC(C)N
boiling point: 31.7 °C | log10 vapour pressure (mmHg): 2.76 | melting point: -95.1 °C

O=C1CCCCCCCCCCCCCCO1
melting point: 32 °C

O=[N+]([O-])c1ccc(Oc2ccccc2)cc1
boiling point: 320 °C | melting point: 61 °C

CCC(O)C(=O)O (stereo not drawn)
melting point: 44.2 °C

C=C(C)C(C)CCC (stereo not drawn)
boiling point: 110 °C

NC(=O)c1ccc(N)cc1
melting point: 182 °C

CC#CC
boiling point: 26.9 °C | log10 vapour pressure (mmHg): 2.85 | melting point: -32.3 °C | ready biodegradability: not readily biodegradable

C1CN(CCN2CCOCC2)CCO1
boiling point: 285 °C | melting point: 75 °C
